Reference: patent US20170304388A1, “NEW INDICATION OF CARDIOVASCULAR DRUGS FOR PREPARATION OF CANCER INHIBITION PHARMACEUTICAL COMPOSITION” (LAUNX BIOMEDICAL CO., LTD., priority 2014, published 2017)
Counter-ions that a name gives are not always drawn.

Legend:
Format in all cases: cell-based
[1] = tested on: H1650 (Lung Adenocarcinoma); experiment: Cell viability analysis (WST-1), H1650; conditions: WST-1, OD450 nm; for viability at 10 µM: Homo sapiens, NCI-H1650, 72 h, Table 3, drug 10 μM, read-out: survival rate (viability) of cancer cells, H1650
[2] = tested on: HepG2 (Hepatocellular Carcinoma); experiment: Cell viability analysis (WST-1), HepG2; conditions: WST-1, OD450 nm; for viability at 10 µM: Homo sapiens, HepG2, 72 h, Table 3, drug 10 μM, read-out: survival rate (viability) of cancer cells, HepG2
[3] = tested on: PC3 (Prostate Adenocarcinoma); experiment: Cell viability analysis (WST-1), PC3; conditions: WST-1, OD450 nm; for viability at 10 µM: 72 h, Table 3, drug 10 μM, read-out: survival rate (viability) of cancer cells, PC3
[4] = tested on: A549 (Lung Adenocarcinoma); experiment: Cell viability analysis (WST-1), A549; conditions: WST-1, OD450 nm; for viability at 10 µM: Homo sapiens, A549, 72 h, Table 3, drug 10 μM, read-out: survival rate (viability) of cancer cells, A549
[5] = tested on: A375 (Amelanotic Melanoma); experiment: Cell viability analysis (WST-1), A375; conditions: WST-1, OD450 nm, lower viability = better inhibition; for viability at 10 µM: Homo sapiens, A-375, 72 h, Table 3, drug 10 μM, read-out: survival rate (viability) of cancer cells, A375
[6] = tested on: MKN-45 (Gastric Adenocarcinoma); experiment: Cell viability analysis (WST-1), MKN-45; conditions: WST-1, OD450 nm; for viability at 10 µM: Homo sapiens, MKN-45, 72 h, Table 3, drug 10 μM, read-out: survival rate (viability) of cancer cells, MKN-45
[7] = tested on: AGS (Gastric Adenocarcinoma); experiment: Cell viability analysis (WST-1), AGS; conditions: WST-1, OD450 nm; for viability at 10 µM: 72 h, Table 3, drug 10 μM, read-out: survival rate (viability) of cancer cells, AGS
[8] = tested on: HCT116 (Colorectal Carcinoma); experiment: Cell viability analysis (WST-1), HCT116; conditions: WST-1, OD450 nm; for viability at 10 µM: Homo sapiens, HCT-116, 72 h, Table 3, drug 10 μM, read-out: survival rate (viability) of cancer cells, HCT116 (WT)
[9] = tested on: LoVo (Colorectal Adenocarcinoma); experiment: Cell viability analysis (WST-1), LoVo; conditions: WST-1, OD450 nm; for viability at 10 µM: Homo sapiens, LoVo, 72 h, Table 3, drug 10 μM, read-out: survival rate (viability) of cancer cells, LoVo
[10] = tested on: TSGH-8301 (Urinary Bladder Carcinoma); experiment: Cell viability analysis (WST-1), TSGH-8301; conditions: WST-1, OD450 nm; for viability at 10 µM: 72 h, Table 3, drug 10 μM, read-out: survival rate (viability) of cancer cells, TSGH
[11] = tested on: HL-60 (Acute Promyelocytic Leukemia); experiment: Cell viability analysis (WST-1), HL-60; conditions: Table 3, drug 10 μM, 72 hours, WST-1, OD450 nm; for viability at 10 µM: Homo sapiens, HL-60, read-out: survival rate (viability) of cancer cells, HL-60
[12] = tested on: MCF7 (Mammary Gland, Adenocarcinoma); experiment: Cell viability analysis (WST-1), MCF7; conditions: WST-1, OD450 nm; for viability at 10 µM: Homo sapiens, MCF7, 72 h, Table 3, drug 10 μM, read-out: survival rate (viability) of cancer cells, MCF7
cancer cell lines = experiment: Growth inhibitory effects on the panel of cancer cell lines; conditions: drug 10 μM, 72 hours; for Numbers of inhibitory effect on cancer cell line: count of cancer cell lines inhibited; for inhibition effect on different cancer cell lines (in words): WST-1
[13] = tested on: HeLa (Cervix Adenocarcinoma); experiment: Cell viability analysis (WST-1), HeLa; conditions: WST-1, OD450 nm; for viability at 10 µM: Homo sapiens, HeLa, 72 h, Table 3, drug 10 μM, read-out: survival rate (viability) of cancer cells, HeLa

| SMILES | viability at 10 µM [1] [%] | viability at 10 µM [2] [%] | viability at 10 µM [3] [%] | viability at 10 µM [4] [%] | viability at 10 µM [5] [%] | viability at 10 µM [6] [%] | viability at 10 µM [7] [%] | viability at 10 µM [8] [%] | viability at 10 µM [9] [%] | viability at 10 µM [10] [%] | viability at 10 µM [11] [%] | viability at 10 µM [12] [%] | Numbers of inhibitory effect on cancer cell line (cancer cell lines) | inhibition effect on different cancer cell lines (in words) (cancer cell lines) | viability at 10 µM [13] [%] | further results |
| --- | --- | --- | --- | --- | --- | --- | --- | --- | --- | --- | --- | --- | --- | --- | --- | --- |
| Cc1cccc(Cc2c[nH]cn2)c1C [Detomidine HCl] | 90.6 | 102 | 89.2 | 81.1 | 84.8 | 91 | 68.5 | 133 | 91 | 74.2 | 105 | 106 | 0 | significant inhibition effect | 88.8 | – |
| CC(C)NC[C@H](O)COc1ccc(CCOCC2CC2)cc1 [Levobetaxolol HCl] | 69.9 | 99.2 | 77.3 | 75.9 | 76.9 | 119 | 62.5 | 70.3 | 80 | 98.2 | 107 | 85 | 0 | significant inhibition effect | 88.7 | – |
| CC(C)NCC(O)COc1ccc(COCCOC(C)C)cc1 (centres unmarked) [Bisoprolol] | 80.7 | 108 | 95.2 | 124 | 117 | 79.7 | 80.3 | 118 | 119 | 87.5 | 85.7 | 112 | 0 | significant inhibition effect | 111 | – |
| C#CCN[C@@H]1CCc2ccccc21 [Rasagiline mesylate] | 71.8 | 92 | 103 | 91.3 | 76.9 | 87.7 | 75.8 | 142 | 94 | 74.2 | 105 | 88.3 | 0 | significant inhibition effect | 88.1 | – |
| Clc1ccccc1CN1CCc2sccc2C1 [Ticlopidine HCl] | 61.6 | 97.4 | 69.9 | 84.9 | 86.5 | 72.7 | 77.2 | 71.9 | 90.5 | 112 | 102 | 96.8 | 0 | significant inhibition effect | 81.9 | – |
| CCCSc1nc(N[C@@H]2C[C@H]2c2ccc(F)c(F)c2)c2nnn([C@@H]3C[C@H](OCCO)[C@@H](O)[C@H]3O)c2n1 [Ticagrelor] | 76 | 94.5 | 84.1 | 85 | 60.1 | 114 | 100 | 73.6 | 79.6 | 86 | 93.7 | 83.1 | 0 | significant inhibition effect | 126 | – |
| CNC[C@@H](O)c1ccc(O)c(O)c1 [L-Adrenaline (Epinephrine), L-Adrenaline] | – | – | – | – | – | – | – | – | – | – | – | – | 0 | significant inhibition effect | – | survival rate (viability) of cancer cells, H1650 ([1]; Table 3, drug 10 μM, 72 hours): 76.6; survival rate (viability) of cancer cells, HepG2 ([2]; Table 3, drug 10 μM, 72 hours): 81.6; survival rate (viability) of cancer cells, PC3 ([3]; Table 3, drug 10 μM, 72 hours): 106.0; survival rate (viability) of cancer cells, A549 ([4]; Table 3, drug 10 μM, 72 hours): 90.8; survival rate (viability) of cancer cells, A375 ([5]; Table 3, drug 10 μM, 72 hours): 101.9; survival rate (viability) of cancer cells, MKN-45 ([6]; Table 3, drug 10 μM, 72 hours): 69.4; survival rate (viability) of cancer cells, AGS ([7]; Table 3, drug 10 μM, 72 hours): 61.1; survival rate (viability) of cancer cells, HCT116 (WT) ([8]; Table 3, drug 10 μM, 72 hours): 85.0; survival rate (viability) of cancer cells, LoVo ([9]; Table 3, drug 10 μM, 72 hours): 93.6; survival rate (viability) of cancer cells, TSGH ([10]; Table 3, drug 10 μM, 72 hours): 64.7; survival rate (viability) of cancer cells, HL-60 [11]: 101.8; survival rate (viability) of cancer cells, MCF7 ([12]; Table 3, drug 10 μM, 72 hours): 123.0; survival rate (viability) of cancer cells, HeLa ([13]; Table 3, drug 10 μM, 72 hours): 88.7 |
| Cc1cnc(C(=O)O)c[n+]1[O-] [Acipimox] | 89.6 | 99.8 | 94.5 | 108 | 124 | 80.2 | 87.5 | 79.4 | 77.4 | 99.8 | 102 | 75.8 | 0 | significant inhibition effect | 87.6 | – |
| CC(=O)Oc1ccc(C(c2ccc(OC(C)=O)cc2)c2ccccn2)cc1 [Bisacodyl] | 93.6 | 100 | 83.7 | 66.7 | 88 | 132 | 107 | 122 | 85.5 | 104 | 96 | 65 | 0 | significant inhibition effect | 89.2 | – |
| CCCNCC(O)COc1ccccc1C(=O)CCc1ccccc1 (centres unmarked) [Propafenone (Rytmonorm), Propafenone] | 92.5 | 86 | 104 | 94.1 | 95.8 | 84.7 | 79.8 | 109 | 105 | 61.1 | 113 | 120 | 0 | – | 109 | – |
| CCOC(=O)[C@H](CCc1ccccc1)N[C@H]1CCc2ccccc2N(CC(=O)O)C1=O [Benazepril hydrochloride] | 61.6 | 93 | 80.7 | 81.8 | 104 | 103 | 76.7 | 60 | 96 | 77.5 | 93.6 | 126 | 0 | significant inhibition effect | 75.9 | – |
| CC(=O)O[C@H]1C[C@@H]2CC[C@@H]3[C@H](CC[C@@]4(C)[C@H]3C[C@H]([N+]3(C)CCCCC3)[C@@H]4OC(C)=O)[C@@]2(C)C[C@@H]1[N+]1(C)CCCCC1 [Pancuronium (Pavulon), Pancuronium] | 91.7 | 92.7 | 108 | 100 | 75.4 | 95.3 | 120 | 102 | 79.8 | 68.3 | 109 | 110 | 0 | significant inhibition effect | 83.3 | – |
